The results in this text go back to ChEMBL document CHEMBL1201862, “PubChem BioAssay data set” (2004).

Test systems include CAKI-1; SNB-19; OVCAR-4; UACC-257; Malme-3M; SK-OV-3; KM12; SN12C; NCI-H522; UO-31; BT-549; NCI-H226; MOLT-4; ACHN; OVCAR-8; MCF7; LOX IMVI; OVCAR-3; HCT-15; SF-539.
Holding throughout (experiment): NCI tumour cell line growth inhibition, 48 h

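Grown in 96-well plates, cells were treated for 48 hours with each compound at five concentrations. Insufficient inhibition: endpoint recorded as highest concentration tested. At the GI50, growth is halved.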 Activity calls are given as the source filed them. Rule as the data show it: active = GI50 up to about 1.1 µM and inactive = higher.

Turning to `O=C(Nc1ccc(Cl)cc1)NS(=O)(=O)c1coc2cc(F)ccc2c1=O`, the GI50 with CAKI-1, with SNB-19, with OVCAR-4, in the assay with UACC-257, with Malme-3M and in the assay with SK-OV-3 was > 100 µM (inactive) in each case. In addition, the GI50 in the assay with KM12 was 92 µM (inactive); in the assay on SN12C, > 100 µM (inactive); with NCI-H522, 67.9 µM (inactive); in the assay with UO-31 it was 86.3 µM (inactive); in the assay on BT-549, > 100 µM (inactive); in the assay with NCI-H226, > 100 µM (inactive). Further, the GI50 in the assay on MOLT-4 was > 100 µM (inactive); in the assay with ACHN, 16.4 µM (inactive); with OVCAR-8, > 100 µM (inactive); in the assay with MCF7, > 100 µM (inactive); in the assay on LOX IMVI, > 100 µM (inactive); with OVCAR-3, > 100 µM (inactive). The GI50 in the assay on HCT-15 was 19.9 µM; with SF-539, 87.7 µM (inactive).

Take `CC(NNC(=O)c1cc[n+]([BH2-]C#N)cc1)c1ccc(Cl)c(Cl)c1` (stereo not given): the GI50 in the assay with CAKI-1 was 18.1 µM (inactive); in the assay on SNB-19 it was 38.3 µM (inactive); with OVCAR-4, 30.9 µM (inactive); with UACC-257, 36.3 µM (inactive); with Malme-3M, 30.9 µM (inactive); in the assay on SK-OV-3 it was 27 µM (inactive). Besides, the GI50 in the assay with KM12 was 40.5 µM (inactive); with SN12C it was 34.5 µM (inactive); in the assay with NCI-H522, 21.3 µM (inactive); in the assay on UO-31, 30 µM (inactive); in the assay with BT-549, 27.9 µM (inactive); in the assay on NCI-H226, 22.4 µM (inactive). For the same compound, the GI50 is 25.9 µM (inactive) in the assay with MOLT-4; 24.3 µM (inactive) in the assay on ACHN; 42.8 µM (inactive) in the assay on OVCAR-8; 26.9 µM (inactive) in the assay on MCF7; 28.9 µM (inactive) with LOX IMVI; 26.9 µM (inactive) with OVCAR-3. For the same compound, the figures for the GI50 in the assay on HCT-15 and in the assay with SF-539 were 31.6 µM and 38.9 µM (inactive), respectively.

For `COC1=CC(=O)C(C2CC(=O)c3c(O)cc(O)cc3O2)=CC1=O` (stereo not given), the GI50 in the assay with CAKI-1 was 18 µM (inactive); in the assay on SNB-19, 25 µM (inactive); in the assay on OVCAR-4, 17.6 µM (inactive); with UACC-257 it was 18.5 µM (inactive); in the assay on Malme-3M, 19.1 µM (inactive); in the assay with SK-OV-3, 36.8 µM (inactive). The GI50 in the assay on KM12 was 17.3 µM (inactive); with SN12C, 19.8 µM (inactive); in the assay on NCI-H522, 15.4 µM (inactive); in the assay with UO-31, 18 µM (inactive); in the assay on BT-549 it was 19.8 µM (inactive); in the assay on NCI-H226, 19.4 µM (inactive). For the same compound, the GI50 in the assay with MOLT-4 was 1.96 µM (inactive); in the assay with ACHN it was 15.9 µM (inactive); with OVCAR-8 it was 25.9 µM (inactive); with MCF7 it was 22.9 µM (inactive); in the assay with LOX IMVI, 16.3 µM (inactive); in the assay with OVCAR-3 it was 18.5 µM (inactive). For the same compound, the GI50 with HCT-15 is 23.3 µM; with SF-539 it was 20.7 µM (inactive).

`CC[C@@]1(O)C(=O)OCc2c1cc1n(c2=O)Cc2c-1nc1ccc(O)cc1c2CC[Si](C)(C)C`: the GI50 in the assay with CAKI-1 is < 0.001 µM (active); with SNB-19, < 0.001 µM (active); in the assay with OVCAR-4, 0.0291 µM (active); with UACC-257, 0.00275 µM (active); with Malme-3M, 0.016 µM (active); with SK-OV-3, < 0.001 µM (active). For the same compound, the GI50 with KM12 was 0.0514 µM (active); in the assay with SN12C, < 0.001 µM (active); with NCI-H522, 0.00291 µM (active); in the assay with UO-31, 0.00497 µM (active); in the assay on BT-549, 0.0205 µM (active); in the assay with NCI-H226, 0.0194 µM (active). In addition, the GI50 is < 0.001 µM (active) with MOLT-4; < 0.001 µM (active) with ACHN; 0.00716 µM (active) with OVCAR-8; < 0.001 µM (active) in the assay on MCF7; < 0.001 µM (active) in the assay with LOX IMVI; 0.0247 µM (active) with OVCAR-3. Further, the GI50 in the assay on HCT-15 was 0.102 µM; in the assay with SF-539, < 0.001 µM (active).

In the case of `COC(=O)C1(Cc2ccc3c(c2)CCC3)Cc2ccc3c(c2C1)CCC3` (stereo not given), the GI50 is 21.6 µM (inactive) in the assay on CAKI-1; 17.2 µM (inactive) in the assay on OVCAR-4; 5.61 µM (inactive) in the assay on UACC-257; 16.5 µM (inactive) in the assay on Malme-3M; 52.8 µM (inactive) in the assay on SK-OV-3; 17.7 µM (inactive) in the assay on KM12. Also, the GI50 with SN12C was 17.5 µM (inactive); with NCI-H522 it was 18.4 µM (inactive); with UO-31, 18.7 µM (inactive); with BT-549, 21.6 µM (inactive); in the assay with NCI-H226, 21.1 µM (inactive); in the assay on MOLT-4, 43.3 µM (inactive). In addition, the GI50 in the assay with ACHN was 24.1 µM (inactive); with OVCAR-8 it was 32.1 µM (inactive); in the assay on MCF7, 13.2 µM (inactive); in the assay on LOX IMVI, 16.8 µM (inactive); in the assay with OVCAR-3, 20.3 µM (inactive); in the assay with HCT-15, 25 µM. Moreover, the GI50 in the assay with SF-539 is 37.9 µM (inactive).

For the compound `COc1ccc2c(c1)-c1[nH]c3ccc(OC)cc3c1CC2`, the GI50 in the assay on CAKI-1 was 18.8 µM (inactive); in the assay with SNB-19, 14.8 µM (inactive); with OVCAR-4, 14.9 µM (inactive); in the assay with UACC-257 it was 17.7 µM (inactive); with Malme-3M, 15 µM (inactive); with SK-OV-3, 18.6 µM (inactive). Further, the GI50 with KM12 is 4.86 µM (inactive); with SN12C, 14.8 µM (inactive); with NCI-H522, 4.55 µM (inactive); in the assay on UO-31, 15.2 µM (inactive); in the assay on BT-549 it was 17.7 µM (inactive); with NCI-H226, 11.8 µM (inactive). Besides, the GI50 in the assay on MOLT-4 was 11 µM (inactive); in the assay on ACHN, 19.6 µM (inactive); in the assay with OVCAR-8, 13.9 µM (inactive); in the assay with MCF7, 24.9 µM (inactive); with LOX IMVI it was 15.2 µM (inactive); in the assay with OVCAR-3 it was 17.6 µM (inactive). For the same compound, the GI50 with HCT-15 is 10.6 µM; with SF-539, 18.2 µM (inactive).

Take `O=C(NCCCCCCCCNC(=O)c1cc(-c2ccccc2)nc2ccccc12)c1cc(-c2ccccc2)nc2ccccc12`: the GI50 was > 100 µM (inactive) with CAKI-1; 64.9 µM (inactive) with SNB-19; > 100 µM (inactive) with OVCAR-4; > 100 µM (inactive) in the assay with UACC-257; > 100 µM (inactive) in the assay with Malme-3M; > 100 µM (inactive) in the assay on SK-OV-3. Besides, the GI50 with SN12C was > 100 µM (inactive); in the assay with NCI-H522, 87.7 µM (inactive); with UO-31, > 100 µM (inactive); in the assay on BT-549, 57.7 µM (inactive); in the assay with NCI-H226, > 100 µM (inactive); in the assay on MOLT-4 it was > 100 µM (inactive). For the same compound, the GI50 in the assay on ACHN is > 100 µM (inactive); in the assay on OVCAR-8, 94 µM (inactive); in the assay on MCF7, > 100 µM (inactive); with LOX IMVI, > 100 µM (inactive); with OVCAR-3, > 100 µM (inactive); in the assay with HCT-15, greater than 100 µM. For the same compound, the GI50 in the assay on SF-539 is 71.1 µM (inactive).

As to `CC1CCC2(CC1)N=C1CCC(C)CC1C1(CCC(C)CC1)N2` (stereo not given), the GI50 was > 100 µM (inactive) with CAKI-1; > 100 µM (inactive) in the assay on SNB-19; > 100 µM (inactive) in the assay with OVCAR-4; 83.6 µM (inactive) with UACC-257; > 100 µM (inactive) in the assay with Malme-3M; > 100 µM (inactive) in the assay with SK-OV-3. The GI50 is > 100 µM (inactive) in the assay with KM12; 69.8 µM (inactive) in the assay on NCI-H522; > 100 µM (inactive) with UO-31; > 100 µM (inactive) in the assay on BT-549; > 100 µM (inactive) in the assay with NCI-H226; 25.9 µM (inactive) with MOLT-4. The GI50 with ACHN is > 100 µM (inactive); in the assay on OVCAR-8, > 100 µM (inactive); in the assay on MCF7, > 100 µM (inactive); in the assay on LOX IMVI, > 100 µM (inactive); in the assay on OVCAR-3, > 100 µM (inactive); in the assay with HCT-15, 84.7 µM. Besides, in the assay on SF-539, the GI50 is > 100 µM (inactive).

As for `COc1ccc(C2C3CCc4ccccc4C3=NN2S(=O)(=O)c2cccc(C(=O)O)c2OC)cc1` (stereo not given), the GI50 with CAKI-1 was 22.5 µM (inactive); with SNB-19, 25.4 µM (inactive); in the assay on OVCAR-4 it was 19.4 µM (inactive); in the assay on Malme-3M it was 13.3 µM (inactive); with SK-OV-3 it was 1.8 µM (inactive); in the assay on KM12, 2.48 µM (inactive). Further, the GI50 in the assay on SN12C is 27.3 µM (inactive); in the assay on NCI-H522 it was 3.19 µM (inactive); with UO-31, 19.4 µM (inactive); in the assay on BT-549, 33.3 µM (inactive); in the assay with NCI-H226, 19.8 µM (inactive); in the assay with MOLT-4, 9.02 µM (inactive). Besides, the GI50 in the assay on ACHN is 7.83 µM (inactive); with OVCAR-8, 23.6 µM (inactive); with MCF7, 2.19 µM (inactive); in the assay with LOX IMVI it was 12.7 µM (inactive); with OVCAR-3 it was 5.35 µM (inactive); in the assay on HCT-15 it was 0.24 µM. In addition, the GI50 in the assay on SF-539 is 6.21 µM (inactive).

`Clc1cc(Cl)cc(/C=N/C23CC4CC(CC(C4)C2)C3)c1`: the GI50 in the assay with CAKI-1, with SNB-19, with OVCAR-4, with UACC-257, in the assay with Malme-3M and with SK-OV-3 was > 10 µM (inactive) in each case. Moreover, the GI50 with KM12, with SN12C, in the assay on NCI-H522, in the assay with BT-549, in the assay on NCI-H226 and with MOLT-4 was > 10 µM (inactive) in each case. For the same compound, the GI50 in the assay on ACHN is > 10 µM (inactive); in the assay with OVCAR-8, > 10 µM (inactive); in the assay on MCF7, 7.59 µM (inactive); with LOX IMVI, > 10 µM (inactive); in the assay on OVCAR-3, > 10 µM (inactive); with HCT-15 it was greater than 10 µM. Further, in the assay on SF-539, the GI50 was > 10 µM (inactive).
